Biological target: Melanin-concentrating hormone receptor 1 (Homo sapiens, UniProt Q99705)
Assay: biochemical
Format: cell-based, HEK293
Description: Displacement of [3H]SNAP-7941 from human MCHR1 expressed in HEK cells

Sequence of Melanin-concentrating hormone receptor 1 (Q99705 whole entry): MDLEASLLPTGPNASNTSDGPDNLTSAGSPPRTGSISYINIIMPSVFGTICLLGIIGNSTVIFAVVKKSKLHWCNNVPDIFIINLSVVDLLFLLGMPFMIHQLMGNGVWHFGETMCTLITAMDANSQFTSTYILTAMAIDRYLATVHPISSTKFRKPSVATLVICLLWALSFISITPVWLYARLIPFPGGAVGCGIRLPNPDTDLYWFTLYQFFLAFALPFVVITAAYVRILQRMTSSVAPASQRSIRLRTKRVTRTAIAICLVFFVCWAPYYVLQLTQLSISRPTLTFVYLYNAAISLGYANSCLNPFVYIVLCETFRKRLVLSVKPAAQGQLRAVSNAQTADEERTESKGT

Ki [nM] | Compound
> 1000 | Cc1ccc(CN2CCC(NC(=O)N(CC(=O)C(C)(C)O)Cc3ccc(-c4ccccc4)cc3)CC2)cc1
> 1000 | COc1ccccc1-c1ccc(CN(CCC2CCN(Cc3ccc(C)cc3)CC2)C(=O)NC(C)C)cc1
> 1000 | COc1ccc(-c2ccc(CN(CC(=O)C(C)(C)O)C(=O)NC3CCN(Cc4ccc(C)cc4)CC3)cc2)cc1

Biological target: Histamine H3 receptor (Homo sapiens, UniProt Q9Y5N1)
Assay: not given

Sequence of Histamine H3 receptor (Q9Y5N1 whole entry): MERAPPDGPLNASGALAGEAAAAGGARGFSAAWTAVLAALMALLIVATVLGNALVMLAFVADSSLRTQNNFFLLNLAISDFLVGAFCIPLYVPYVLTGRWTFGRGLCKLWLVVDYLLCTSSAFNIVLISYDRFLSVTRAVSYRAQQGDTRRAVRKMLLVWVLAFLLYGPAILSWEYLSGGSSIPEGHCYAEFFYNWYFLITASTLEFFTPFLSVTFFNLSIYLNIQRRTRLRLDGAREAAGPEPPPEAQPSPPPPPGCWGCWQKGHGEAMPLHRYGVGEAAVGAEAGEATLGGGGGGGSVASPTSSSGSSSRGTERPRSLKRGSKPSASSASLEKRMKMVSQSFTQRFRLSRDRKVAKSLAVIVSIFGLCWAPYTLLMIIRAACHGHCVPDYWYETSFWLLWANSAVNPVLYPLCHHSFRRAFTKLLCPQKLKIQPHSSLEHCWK

Compound | Ki [nM]
CCC(CO)(CO)NC(=O)N(CCC1CCN(Cc2ccc(C)cc2)CC1)Cc1ccc(-c2ccc(F)cc2)cc1 | > 1000
COc1ccc(-c2ccc(CN(CCC3CCN(Cc4ccc(C)cc4)CC3)C(=O)NC(C)C)cc2)cc1 | 6510
CC(=O)OCC(C)(C)NC(=O)N(CCC1CCN(Cc2ccc(C)cc2)CC1)Cc1ccc(-c2ccc(F)cc2)cc1 | 2080
CC(=O)OCC(C)(C)NC(=O)N(CCC1CCN(Cc2ccc(C)cc2)CC1)Cc1ccc(-c2cccc(C#N)c2)cc1 | 1630
CCC(CO)(CO)NC(=O)N(CCC1CCN(Cc2ccc(C)cc2)CC1)Cc1ccc(-c2ccc(OC)cc2)cc1 | 899
COc1ccccc1-c1ccc(CN(CCC2CCN(Cc3ccc(C)cc3)CC2)C(=O)NC(C)(C)CO)cc1 | 6680
CCC(CO)(CO)NC(=O)N(CCC1CCN(Cc2ccc(C)cc2)CC1)Cc1ccc(-c2ccccc2OC)cc1 | 2140
CCC(CO)(CO)NC(=O)N(CCC1CCN(Cc2ccc(C)cc2)CC1)Cc1ccc(-c2cccc(C#N)c2)cc1 | 8800
CCC(COC(C)=O)(COC(C)=O)NC(=O)N(CCC1CCN(Cc2ccc(C)cc2)CC1)Cc1ccc(-c2ccc(OC)cc2)cc1 | 779
COc1ccc(-c2ccc(CN(CCC3CCN(Cc4ccc(C)cc4)CC3)C(=O)NC(C)(C)COC(C)=O)cc2)cc1 | 1010
COc1ccccc1-c1ccc(CN(CCC2CCN(Cc3ccc(C)cc3)CC2)C(=O)NC(C)(C)COC(C)=O)cc1 | 1050
CCC(COC(C)=O)(COC(C)=O)NC(=O)N(CCC1CCN(Cc2ccc(C)cc2)CC1)Cc1ccc(-c2ccc(F)cc2)cc1 | 548
Cc1ccc(CN2CCC(CCN(Cc3ccc(-c4cccc(C#N)c4)cc3)C(=O)NC(C)(C)CO)CC2)cc1 | 1160
CCC(COC(C)=O)(COC(C)=O)NC(=O)N(CCC1CCN(Cc2ccc(C)cc2)CC1)Cc1ccc(-c2ccccc2OC)cc1 | 629
CCC(COC(C)=O)(COC(C)=O)NC(=O)N(CCC1CCN(Cc2ccc(C)cc2)CC1)Cc1ccc(-c2cccc(C#N)c2)cc1 | 1310
COc1ccc(-c2ccc(CN(CCC3CCN(Cc4ccc(C)cc4)CC3)C(=O)NC(C)(C)CO)cc2)cc1 | 9260

Results, then the molecule that gave them:

Ki [nM] | Compound
2800 | Cc1ccc(CN2CCC(NC(=O)N(CC(=O)C(C)(C)O)Cc3ccc(-c4cccc(C#N)c4)cc3)CC2)cc1
> 1000 | Cc1ccc(CN2CCC(NC(=O)N(CC(=O)C(C)(C)O)Cc3ccc(-c4ccccc4)cc3)CC2)cc1
> 1000 | Cc1ccc(CN2CCC(CCN(Cc3ccc(-c4ccc(F)cc4)cc3)C(=O)NC(C)(C)CO)CC2)cc1
> 1000 | COc1ccccc1-c1ccc(CN(CCC2CCN(Cc3ccc(C)cc3)CC2)C(=O)NC(C)C)cc1
853 | Cc1ccc(CN2CCC(CCN(Cc3ccc(-c4cccc(C#N)c4)cc3)C(=O)NC(C)C)CC2)cc1
1130 | CC(=O)OCC(C)(C)NC(=O)N(CCC1CCN(Cc2ccc(C)cc2)CC1)Cc1ccc(-c2ccccc2)cc1
807 | CCC(COC(C)=O)(COC(C)=O)NC(=O)N(CCC1CCN(Cc2ccc(C)cc2)CC1)Cc1ccc(-c2ccccc2)cc1
5150 | COc1ccc(-c2ccc(CNC(=O)NC3CCN(Cc4ccc(C)cc4)CC3)cc2)cc1
> 1000 | COc1ccccc1-c1ccc(CNC(=O)NC2CCN(Cc3ccc(C)cc3)CC2)cc1
> 1000 | Cc1ccc(CN2CCC(NC(=O)NCc3ccc(-c4cccc(C#N)c4)cc3)CC2)cc1
1420 | Cc1ccc(CN2CCC(NC(=O)N(CC(=O)C(C)(C)O)Cc3ccc(-c4ccc(F)cc4)cc3)CC2)cc1
581 | COc1ccc(-c2ccc(CN(CC(=O)C(C)(C)O)C(=O)NC3CCN(Cc4ccc(C)cc4)CC3)cc2)cc1
> 1000 | Cc1ccc(CN2CCC(NC(=O)NCc3ccc(-c4ccccc4)cc3)CC2)cc1
9990 | COc1ccccc1-c1ccc(CN(CC(=O)C(C)(C)O)C(=O)NC2CCN(Cc3ccc(C)cc3)CC2)cc1
> 1000 | Cc1ccc(CN2CCC(CCN(Cc3ccc(-c4ccccc4)cc3)C(=O)NC(C)C)CC2)cc1

— ChEMBL document CHEMBL1268975, “Building a MCHR1 homology model provides insight into the receptor-antagonist contacts that are important for the development of new anti-obesity agents” (Bioorg Med Chem, 2010)
